{"source": "patent US10766857B2", "about": "“Compound having BLT inhibitory activity and composition, for preventing or treating inflammatory diseases, comprising same as active ingredient” (DONGGUK UNIVERSITY INDUSTRY-ACADEMIC COOPERATION FOUNDATION, priority 2015, dated 2020)", "key": {"MDA-MB-231 cells [1]": {"system": "MDA-MB-231 cells", "assay": "Intracellular ROS generation (DCF fluorescence)", "format": "cell-based", "conditions": "30 minutes treatment", "experimental": "(§1) The breast cancer cells such as the MDA-MB-231 cells were obtained from Korean Cell Line Bank (Seoul, Korea), and the MDA-MB-435 cells were provided by J. H. Lee (Asan Medical Center, Seoul, Korea). These cells were cultured in an RPMI 1640 medium (Invitrogen) containing 10% FBS (Life Technologies, Inc.), 1% penicillin (50 units/mL), and an antibiotic antimycotic solution (Life Technologies, Inc.) at 37° C. under a 5% CO2 condition.\n(§2) Intracellular ROS (H2O2) generated according to the treatment of the compound of the present invention (LMT-696) was measured as a function of DCF fluorescence. Specifically, before ROS measurement, 2×10^5 cells were grown in 60-mm wells, and cultured in a FBS-supplemented RPMI 1640 medium for 24 hours. To evaluate the effect of the compound of the present invention, the cells were treated with the compound (LMT-696) for 30 minutes. To measure the intracellular ROS, the cells were cultured with 20 μM of a H2O2-sensitive fluorescent material such as H2DCFDA [Molecular Probes (Eugene, Oreg.)] at 37° C. in a dark and humidified CO2 incubator for 20 minutes. […] A DCF fluorescent degree was measured with excitation and emission wavelengths at 488 and 530 nm, respectively, using a FACS Calibur flow cytometer (Becton Dickinson, N.J.)."}, "MDA-MB-435 cells [2]": {"system": "MDA-MB-435 cells", "assay": "Intracellular ROS generation (DCF fluorescence)", "format": "cell-based", "conditions": "30 minutes treatment", "experimental": "as §1, §2"}, "MDA-MB-231 cells [3]": {"system": "MDA-MB-231 cells", "assay": "Matrigel invasion of breast cancer cells", "format": "cell-based", "experimental": "as §1\n(§3) To detect the invasion of breast cancer cells according to the treatment of the compound of the present invention, BioCoat Matrigel Invasion Chambers (BD Biosciences, Bedford, Mass.) were used. 5×10^4 of the breast cancer cells were harvested with trypsin-EDTA, resuspended in 0.5% serum-containing RPMI 1640, and transferred to Matrigel inserts. Five percent serum-containing RPMI 1640 was added to the lower chamber, and the cells were cultured at 37° C. for 36 hours. Each filter was fixed with methanol for 3 minutes, and stained with hematoxylin and eosin for 10 minutes. The invasiveness of the cancer cells was quantified by cell counts on the lower side of the filter under an optical microscope (magnification, 200×). In each analysis, 6 fields were quantified. Each sample was analyzed twice, and the analysis was repeated three times."}, "MDA-MB-435 cells [4]": {"system": "MDA-MB-435 cells", "assay": "Matrigel invasion of breast cancer cells", "format": "cell-based", "experimental": "as §1, §3"}, "[5]": {"system": "severe asthma-induced mice", "assay": "OVA-induced asthma mice: AHR and IL-4", "format": "in vivo", "conditions": "pre-treated at 10 μM (so in the source)", "description": "Mast cells play a pivotal role in the initial reaction to asthma, and when an allergen enters the body from the outside through an airway, the mast cells are activated, thereby secreting various cytokines (interleukin-4 and interleukin-13). Due to the cytokines, the influx of inflammatory cells, the generation of mucus and the airway contraction occur. The inventors used 7-week-old (18 to 20 g) female BALB/c mice provided by Orient (Seoungnam, Korea) for the experiment to confirm the antiasthma effect, and then the asthma was induced in the mice. […] On the 24th day of the initial sensitization, airway hyperresponsiveness (AHR) was detected, and on the 25th day, the mice were dissected to observe asthma phenotypes, for example, inflammatory cytokine IL-4 expression and the influx of inflammatory cells (neutrophils). […] On the 23rd day of the initial sensitization, AHR was detected, and on the 24th day, the mice were dissected to observe a severe asthma phenotype, for example, the influx of the inflammatory cells (neutrophils). […] The AHR was analyzed using an enhanced pause as the indicator of the asthma phenomenon. Bronchoalveolar lavage fluid cell counts were quantified by counting cells under an optical microscope (magnification, 200×). In each analysis, 4 fields were subjected to counting, each sample was analyzed twice, and the analysis was repeated three times."}}}
{"smiles": "CCCCC(=O)N(CC#Cc1ccc(C(=O)N2CCN(C(C)C)CC2)cc1)c1ccccc1", "note": "[LMT-696, N-(3-(4-(4-isopropylpiperazine-1-carbonyl)phenyl)prop-2-ynyl)-N-phenylpentaneamide]", "values": [{"measurement": "inhibition of ROS generation", "setting": "MDA-MB-231 cells [1]", "result": "significant inhibition"}, {"measurement": "inhibition of ROS generation", "setting": "MDA-MB-435 cells [2]", "result": "significant inhibition"}, {"measurement": "cancer cell invasion inhibited", "setting": "MDA-MB-231 cells [3]", "result": 70, "unit": "%"}, {"measurement": "cancer cell invasion inhibited", "setting": "MDA-MB-435 cells [4]", "result": 56, "unit": "%"}, {"measurement": "AHR reduced", "setting": "[5]; airway constrictor 50 mg/ml", "result": 70, "unit": "%"}, {"measurement": "generation of IL-4 reduced", "setting": "[5]; cells isolated from the abdominal cavity of the mice", "result": 70, "unit": "%"}]}
